Tests used:
Assay type in all cases: in vivo
[1] = tested on: H460 human non-small cell lung cancer cell line; experiment: H460 human non-small cell lung cancer xenografts in nude mice (Example XV); settings: 5 μg/day s.c.
From the text: The aim of this study was to find out the tumor inhibitor effect of the latest GHRH antagonists (Peptide 11423, Peptide 11602, Peptide 11604, Peptide 11606) on H460 human non-small cell lung cancer cell line. Female nude mice were xenografted subcutaneously with approximately 3 mm^3 pieces of H460 human non-small cell lung cancer malignant tumor tissue. When tumors reached the mean volume of approximately 90 mm^3, the animals was randomly assigned into different groups. Tumor volumes and body weight were measured once a week. At the end of the experiment mice were anesthetized and sacrificed. Tumors were carefully excised, weighed and were stored at −80° C. until further investigation. Organs and tumor samples were preserved in 10% formaldehyde.

[2] = tested on: Human ovarian cancer SKOV3 cells; experiment: SKOV3 ovarian cancer xenografts in nude mice; settings: 5 μg/day s.c.
From the text: Human ovarian cancer SKOV3 cells growing exponentially were implanted info five female nude mice by subcutaneous (s.c.) injection of 10^7 cells in both flanks. Tumors That resulted after approximately 4 weeks in donor animals were then aseptically dissected and mechanically minced. Three mm^3 pieces of tumor tissue were transplanted subcutaneously into experimental animals with a trocar needle. When tumors reached an appropriate size (approximately 50 mm^3), mice were randomly divided into […]. The first was the control group, the second group was treated with daily s.c. injections of 5 μg P-11313, the third group was treated with daily s.c. injections of 5 μg P-11604, the fourth group was treated with daily s.c. injections of 5 μg P-11610. Tumor volume (length×width×height×0.5236) was measured every week and mean tumor volumes of each group were compared by Student's t-test. The study lasted 49 days. One week after end of treatment, mice were killed under anesthesia, tumors were snap frozen and stored at −70° C.

[3] = tested on: PC-3 human hormone-independent prostate cancer; experiment: PC3 androgen-independent prostate cancer xenografts in nude mice (Example XIV)
Protocol: Male nude mice were implanted s.c. with 3 mm^3 pieces of PC-3 human hormone-independent prostate cancer tissue on both flanks. When tumors reached a volume of approximately 50 mm^3, the mice were divided into 8 experimental groups with 8 to 10 animals in each group and received single daily injections for 28 days as follows: 1. Control (vehicle solution); 2. P-11513 2 μg/day; 3. P-11602 2 μg/day; 4. P-11602 1 μg/day; 5. P-11604 2 μg/day; 6. P-11606 2 μg/day; 7. P-11610 2 μg/day; 8. P-11610 1 μg/day.
Tumor volumes were measured once a week. The experiment was ended on day 28 by sacrificing the mice under Isoflurane anesthesia. Resulting tumors were cleaned, weighed, and snap-frozen until further analyses. Statistical analyses of the measurement results were done by two-tailed t-test, p<0.05 being considered significant.

[4] = tested on: HT human diffuse mixed B cell lymphoma cell line; experiment: HT human diffuse mixed B cell lymphoma xenografts in nude mice; settings: 5 μg/day s.c.
Protocol: The aim of this study was to find out the tumor inhibitor effect of the latest GHRH antagonists (Peptide 11602, Peptide 11604, Peptide 11606, and Peptide 11610) at the dose of 5 μg/day on HT human diffuse mixed B cell lymphoma cell line. Female nude mice were xenografted subcutaneously with approximately 3 mm^3 pieces of HT malignant tumor tissue. When tumors reached the mean volume of approximately 120 mm^3, the animals were randomly assigned into different groups. Tumor volumes and body weight were measured once a week. At the end of the experiment mice were anesthetized and sacrificed. Tumors were carefully excised, weighed and were stored at −80° C. until further investigation. Organs and tumor samples were preserved in 10% formaldehyde.

[PhAc^0-Tyr^1, D-Arg^2, Cpa^6, Dip^8, Har^9, Tyr(Me)^10, His^11, Orn^12, Abu^15, His^20, Orn^21, Nle^27, D-Arg^28, Har^29-AE2A^30]hGH-RH(1-29)NH2 [Peptide 11423]
TUMOR GROWTH (%) ([1]; day 1 (baseline)): 100.00% | TUMOR GROWTH (%) ([1]; day 7): 412.37% | Tumor inhibition (%) ([1]; day 7): 22.17% | TUMOR GROWTH (%) ([1]; day 14): 761.10% | Tumor inhibition (%) ([1]; day 14): 44.95% | TUMOR GROWTH (%) ([1]; day 21): 1130.90% | Tumor inhibition (%) ([1]; day 21): 54.20% | TUMOR GROWTH (%) ([1]; day 28): 2687.38% | Tumor inhibition (%) ([1]; day 28): 34.45%

PhAc^0-Tyr^1, D-Arg^2, Cpa^6, Ala^8, Har^9, (Phe(F)5)^10, His^11, Orn^12, Abu^15, His^20, Orn^21, Nle^27, D-Arg^28, Har^29-Ada^30]hGH-RH(1-29)NH2 [Peptide 11610]
TU growth (%) ([2]; day 0 (baseline)): 100% | TU growth (%) ([2]; day 7): 137.44% | TU inhibition (%) ([2]; day 7): 35.89% | TU growth (%) ([2]; day 14): 150.1% | TU inhibition (%) ([2]; day 14): 46.44% | TU growth (%) ([2]; day 21): 239.14% | TU inhibition (%) ([2]; day 21): 56.00% | TU growth (%) ([2]; day 28): 204.07% | TU inhibition (%) ([2]; day 28): 75.76% | TU growth (%) ([2]; day 35): 242.05% | TU inhibition (%) ([2]; day 35): 72.89% | TU growth (%) ([2]; day 42): 273.83% | TU inhibition (%) ([2]; day 42): 77.85% | TU growth (%) ([2]; day 49): 383.93% | TU inhibition (%) ([2]; day 49): 69.82% | TUMOR GROWTH (%) ([3]; 1 μg/day, day 0 (baseline)): 100% | TUMOR GROWTH (%) ([3]; 1 μg/day, day 7): 195.49% | Tumor inhibition (%) ([3]; 1 μg/day, day 7): 40.99% | TUMOR GROWTH (%) ([3]; 1 μg/day, day 14): 302.30% | Tumor inhibition (%) ([3]; 1 μg/day, day 14): 48.84% | TUMOR GROWTH (%) ([3]; 1 μg/day, day 21): 549.94% | Tumor inhibition (%) ([3]; 1 μg/day, day 21): 53.79% | TUMOR GROWTH (%) ([3]; 1 μg/day, day 28): 740.17% | Tumor inhibition (%) ([3]; 1 μg/day, day 28): 60.15% | TUMOR GROWTH (%) ([3]; 2 μg/day, day 0 (baseline)): 100% | TUMOR GROWTH (%) ([3]; 2 μg/day, day 7): 132.24% | Tumor inhibition (%) ([3]; 2 μg/day, day 7): 60.08% | TUMOR GROWTH (%) ([3]; 2 μg/day, day 14): 289.25% | Tumor inhibition (%) ([3]; 2 μg/day, day 14): 51.05% | TUMOR GROWTH (%) ([3]; 2 μg/day, day 21): 466.31% | Tumor inhibition (%) ([3]; 2 μg/day, day 21): 60.82% | TUMOR GROWTH (%) ([3]; 2 μg/day, day 28): 631.89% | Tumor inhibition (%) ([3]; 2 μg/day, day 28): 65.98% | TUMOR GROWTH (%) ([4]; day 1 (baseline)): 100% | Tumor inhibition (%) ([4]; day 1 (baseline)): 0% | Tumor volume (mm^3) ([4]; day 1 (baseline)): 90.42 mm^3 | TUMOR GROWTH (%) ([4]; day 7): 183.36% | Tumor inhibition (%) ([4]; day 7): 40.01% | Tumor volume (mm^3) ([4]; day 7): 145.53 mm^3 | TUMOR GROWTH (%) ([4]; day 14): 307.98% | Tumor inhibition (%) ([4]; day 14): 36.21% | Tumor volume (mm^3) ([4]; day 14): 194.57 mm^3 | TUMOR GROWTH (%) ([4]; day 21): 361.18% | Tumor inhibition (%) ([4]; day 21): 53.78% | Tumor volume (mm^3) ([4]; day 21): 250.24 mm^3 | TUMOR GROWTH (%) ([4]; day 28): 519.79% | Tumor inhibition (%) ([4]; day 28): 42.02% | Tumor volume (mm^3) ([4]; day 28): 428.99 mm^3

[(PhAc^0-Ada)-Tyr^1, D-Arg^2, (Phe(F)5)^6, (Me-Ala)^8, Har^9, Tyr(Me)^10, His^11, Orn^12, Abu^15, His^20, Orn^21, Nle^27, D-Arg^28, Har^29, Agm^30]hGH-RH(1-29) [Peptide 11606]
TUMOR GROWTH (%) ([3]; 2 μg/day, day 0 (baseline)): 100% | TUMOR GROWTH (%) ([3]; 2 μg/day, day 7): 145.65% | Tumor inhibition (%) ([3]; 2 μg/day, day 7): 56.03% | TUMOR GROWTH (%) ([3]; 2 μg/day, day 14): 307.66% | Tumor inhibition (%) ([3]; 2 μg/day, day 14): 47.94% | TUMOR GROWTH (%) ([3]; 2 μg/day, day 21): 521.69% | Tumor inhibition (%) ([3]; 2 μg/day, day 21): 56.16% | TUMOR GROWTH (%) ([3]; 2 μg/day, day 28): 709.50% | Tumor inhibition (%) ([3]; 2 μg/day, day 28): 61.80% | TUMOR GROWTH (%) ([1]; day 1 (baseline)): 100.00% | TUMOR GROWTH (%) ([1]; day 7): 221.26% | Tumor inhibition (%) ([1]; day 7): 58.24% | TUMOR GROWTH (%) ([1]; day 14): 494.68% | Tumor inhibition (%) ([1]; day 14): 64.22% | TUMOR GROWTH (%) ([1]; day 21): 933.19% | Tumor inhibition (%) ([1]; day 21): 62.20% | TUMOR GROWTH (%) ([1]; day 28): 1482.03% | Tumor inhibition (%) ([1]; day 28): 63.85% | TUMOR GROWTH (%) ([4]; day 1 (baseline)): 100% | Tumor inhibition (%) ([4]; day 1 (baseline)): 0% | Tumor volume (mm^3) ([4]; day 1 (baseline)): 128.49 mm^3 | TUMOR GROWTH (%) ([4]; day 7): 209.74% | Tumor inhibition (%) ([4]; day 7): 31.38% | Tumor volume (mm^3) ([4]; day 7): 223.02 mm^3 | TUMOR GROWTH (%) ([4]; day 14): 352.2% | Tumor inhibition (%) ([4]; day 14): 27.05% | Tumor volume (mm^3) ([4]; day 14): 341.77 mm^3 | TUMOR GROWTH (%) ([4]; day 21): 453.71% | Tumor inhibition (%) ([4]; day 21): 41.94% | Tumor volume (mm^3) ([4]; day 21): 510.24 mm^3 | TUMOR GROWTH (%) ([4]; day 28): 660.24% | Tumor inhibition (%) ([4]; day 28): 26.35% | Tumor volume (mm^3) ([4]; day 28): 716.13 mm^3

[(PhAc-Ada)^0-Tyr^1, D-Arg^2, (Phe(F)5)^6, Ala^8, Har^9, Tyr(Me)^10, His^11, Orn^12, Abu^15, His^20, Orn^21, Nle^27, D-Arg^28, Har^29]hGH-RH(1-29)NH2 [Peptide 11602]
TUMOR GROWTH (%) ([3]; 1 μg/day, day 0 (baseline)): 100% | TUMOR GROWTH (%) ([3]; 1 μg/day, day 7): 249.81% | Tumor inhibition (%) ([3]; 1 μg/day, day 7): 24.59% | TUMOR GROWTH (%) ([3]; 1 μg/day, day 14): 295.25% | Tumor inhibition (%) ([3]; 1 μg/day, day 14): 50.04% | TUMOR GROWTH (%) ([3]; 1 μg/day, day 21): 467.74% | Tumor inhibition (%) ([3]; 1 μg/day, day 21): 60.70% | TUMOR GROWTH (%) ([3]; 1 μg/day, day 28): 740.06% | Tumor inhibition (%) ([3]; 1 μg/day, day 28): 60.15% | TUMOR GROWTH (%) ([3]; 2 μg/day, day 0 (baseline)): 100% | TUMOR GROWTH (%) ([3]; 2 μg/day, day 7): 197.77% | Tumor inhibition (%) ([3]; 2 μg/day, day 7): 40.30% | TUMOR GROWTH (%) ([3]; 2 μg/day, day 14): 270.61% | Tumor inhibition (%) ([3]; 2 μg/day, day 14): 54.21% | TUMOR GROWTH (%) ([3]; 2 μg/day, day 21): 449.82% | Tumor inhibition (%) ([3]; 2 μg/day, day 21): 62.20% | TUMOR GROWTH (%) ([3]; 2 μg/day, day 28): 641.31% | Tumor inhibition (%) ([3]; 2 μg/day, day 28): 65.47% | TUMOR GROWTH (%) ([1]; day 1 (baseline)): 100.00% | TUMOR GROWTH (%) ([1]; day 7): 247.89% | Tumor inhibition (%) ([1]; day 7): 53.21% | TUMOR GROWTH (%) ([1]; day 14): 504.42% | Tumor inhibition (%) ([1]; day 14): 63.52% | TUMOR GROWTH (%) ([1]; day 21): 864.16% | Tumor inhibition (%) ([1]; day 21): 65.00% | TUMOR GROWTH (%) ([1]; day 28): 2575.35% | Tumor inhibition (%) ([1]; day 28): 37.18% | TUMOR GROWTH (%) ([4]; day 1 (baseline)): 100% | Tumor inhibition (%) ([4]; day 1 (baseline)): 0% | Tumor volume (mm^3) ([4]; day 1 (baseline)): 194.81 mm^3 | TUMOR GROWTH (%) ([4]; day 7): 192.86% | Tumor inhibition (%) ([4]; day 7): 36.94% | Tumor volume (mm^3) ([4]; day 7): 260.13 mm^3 | TUMOR GROWTH (%) ([4]; day 14): 281.4% | Tumor inhibition (%) ([4]; day 14): 41.71% | Tumor volume (mm^3) ([4]; day 14): 311.76 mm^3 | TUMOR GROWTH (%) ([4]; day 21): 462.45% | Tumor inhibition (%) ([4]; day 21): 40.82% | Tumor volume (mm^3) ([4]; day 21): 332.67 mm^3 | TUMOR GROWTH (%) ([4]; day 28): 608.23% | Tumor inhibition (%) ([4]; day 28): 32.15% | Tumor volume (mm^3) ([4]; day 28): 509.24 mm^3

From patent publication US9260504B2, “N- and C-terminal substituted antagonistic analogs of GH-RH” (University of Miami, priority 2008, dated 2016)
